Experimental data from ChEMBL document CHEMBL1201862, “PubChem BioAssay data set” (2004).
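Compound exposure: 48 hours, 5 concentrations, 96-well plates. GI50: concentration for 50% inhibition of growth.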 Activity calls are given as the source filed them. Cut-off read from the data, not from the text of the source: active = GI50 up to about 1.1 µM and inactive = higher.

Key:
Test in all cases: NCI tumour cell line growth inhibition, 48 h
[1] = test system: A498
[2] = test system: COLO 205
[3] = test system: EKVX
[4] = test system: HT-29
[5] = test system: Hs-578T
[6] = test system: IGROV-1
[7] = test system: K562
[8] = test system: M14
[9] = test system: MDA-MB-231
[10] = test system: MDA-MB-435
[11] = test system: Malme-3M
[12] = test system: NCI-H226
[13] = test system: NCI-H23
[14] = test system: NCI-H460
[15] = test system: RXF 393
[16] = test system: SK-MEL-2
[17] = test system: SK-OV-3
[18] = test system: SW-620
[19] = test system: UACC-257

Measured: GI50

N#CC(NCCO)=C1C(=O)c2ccccc2C1=O
inactive: [1] > 100 µM | [2] > 100 µM | [3] > 100 µM | [4] > 100 µM | [5] > 100 µM | [6] > 100 µM | [7] > 100 µM | [8] > 100 µM | [9] > 100 µM | [10] > 100 µM | [11] > 100 µM | [12] > 100 µM | [13] > 100 µM | [14] > 100 µM | [15] > 100 µM | [16] > 100 µM | [17] > 100 µM | [18] > 100 µM | [19] > 100 µM

CCOC1(OCC)C2C=CC1C(COS(=O)(=O)c1ccc(C)cc1)C2COS(=O)(=O)c1ccc(C)cc1 (stereo not drawn)
inactive: [1] 24 µM | [2] 24.1 µM | [3] 22.4 µM | [4] 25.6 µM | [5] 37.3 µM | [6] 43.1 µM | [7] 20.5 µM | [8] 26.8 µM | [9] 22.1 µM | [10] 29 µM | [11] 24.4 µM | [12] 24.3 µM | [13] 39.1 µM | [14] 35.5 µM | [15] 39.9 µM | [16] 28.7 µM | [17] 33.3 µM | [18] 36.3 µM | [19] 25.4 µM

CC(=O)CC(O)(C(F)(F)Cl)C(F)(F)Cl
inactive: [1] > 10 µM | [2] > 10 µM | [3] > 10 µM | [4] > 10 µM | [5] > 10 µM | [6] > 10 µM | [7] > 10 µM | [8] > 10 µM | [9] > 10 µM | [10] > 10 µM | [11] > 10 µM | [12] > 10 µM | [13] > 10 µM | [14] > 10 µM | [15] > 10 µM | [16] > 10 µM | [17] > 10 µM | [18] > 10 µM | [19] > 10 µM

O=C(Cl)C1=C(c2ccccc2)C1c1ccccc1 (stereo not drawn)
inactive: [1] > 100 µM | [2] > 100 µM | [3] > 100 µM | [4] > 100 µM | [5] > 100 µM | [6] > 100 µM | [7] > 100 µM | [8] > 100 µM | [9] > 100 µM | [10] > 100 µM | [11] > 100 µM | [12] > 100 µM | [13] > 100 µM | [14] > 100 µM | [15] > 100 µM | [16] > 100 µM | [17] > 100 µM | [18] > 100 µM | [19] > 100 µM

COc1cc(C2c3cc4c(cc3OC(O)C2C)OCO4)cc(OC)c1O (stereo not drawn)
inactive: [1] 23 µM | [2] 18.2 µM | [3] 19.2 µM | [4] 4.7 µM | [5] 8.02 µM | [6] 8.55 µM | [7] 3.04 µM | [8] 6.9 µM | [9] 10.1 µM | [10] 1.95 µM | [11] 3.86 µM | [12] 17 µM | [13] 28.8 µM | [14] 4.85 µM | [15] 7.35 µM | [16] 10.3 µM | [17] 6.59 µM | [18] 4 µM | [19] 48.5 µM

CCCCCCCCCCCNC=O
inactive: [1] 22.4 µM | [2] 49.3 µM | [3] 52.8 µM | [4] 37.3 µM | [5] 52 µM | [6] 84.7 µM | [7] 23.7 µM | [8] 63 µM | [9] 48.6 µM | [10] 73.8 µM | [11] 54 µM | [12] 94.6 µM | [13] 44.5 µM | [14] 53.7 µM | [15] 48.8 µM | [16] 24.8 µM | [17] 75.5 µM | [18] 48.3 µM | [19] 32.4 µM

CC(=O)C1=C(C)N(c2ccccc2)C2(O)C3=C(C(=O)c4ccccc4C3=O)C(O)=CC12Cl (stereo not drawn)
inactive: [1] 13 µM | [2] 5.21 µM | [3] 8.51 µM | [4] 3.1 µM | [5] 4.01 µM | [6] 2.71 µM | [7] 6.04 µM | [8] 7.03 µM | [9] 10.7 µM | [10] 2.32 µM | [11] 1.88 µM | [12] 21.4 µM | [13] 6.55 µM | [14] 5.26 µM | [15] 5.85 µM | [16] 5.07 µM | [17] 49.7 µM | [18] 3.89 µM | [19] 4.71 µM
